Patent publication US20260265675A1, “Methods for Enhanced Gene Expression in Microorganisms” (ALGAE-C INC., priority 2023, published 2026)

Legend:
Type in all cases: cell-based, Chlamydomonas reinhardtii
mVenus [1] = experiment: mVenus expression after 6-day treatment with SAHA analogs and other HDAC inhibitors (96 well liquid culture, flow cytometry and plate reader); details: for expression of the transgene: mVenus transgene in Chlamydomonas reinhardtii, compared with other histone deacetylase inhibitors; for frequency of mVenus-positive cells / increase of amount of mVenus inside each cell (mean fluorescence intensity) / increase of frequency of mVenus-positive cells: day 3 post-treatment
Description: For the SAHA (vorinostat), belinostat, dacinostat, panobinostat, mocetinostat, entinostat, and romidepsin series of treatments (comparison between various SAHA analogs and other HDAC inhibitors), inoculums of 10^5 cells in late exponential phase of growth were transferred in 200 μL of TAP medium in 96 well plates and were treated with 5 μM of each histone deacetylase inhibitor for 6 days. DMSO was used as a negative control.
(§1) Growth curves were obtained using a Synergy H1 plate reader (Biotek, Agilent), from two or three biological replicates for each strain studied as in (Molino et al., 2022). For SAHA main treatments, 250 μL samples of 50 mL cultures were added in 96 well flat bottom microplates (Corning Costar 96-Well, Cell Culture-Treated, Fisher Scientifics). The OD absorbance was read at 750 nm. Bottom read scan mode mean fluorescence was measured with Excitation (Ex): 500 nm/Emission (Em): 541 nm for mVenus; and bottom read fluorescence Ex: 475 nm/Em: 650 nm for chlorophyll.
(§2) A Cytomics FC500 cytometer equipped with Argon (488 nm) and HeNe (633 nm) lasers were used to measure mVenus emission on the FL1 channel (525/15 nm), and chloroplast fluorescence on the FL4 channel (675/15 nm) (Beckman Coulter Life Sciences). At least 10 000 events were acquired. A homogeneous cloud of intact cells was first gated based on size (FSC) and granulosity (SSC). Then a daughter gate selected the cloud of cells with homogenous chlorophyll autofluorescence. The % of mVenus^+ cells was measured on this daughter population with a gate in the FL1 channel that excluded cells with autofluorescence levels similar to the negative controls. Cells were considered mVenus^+ when both the % of gated mVenus^+ cells (and >0.1%) and mVenus mean fluorescence intensity were higher than the values of the WT controls. Propidium iodide (Thermo Fisher) was used to verify viability and acquired on the FL3 channel (620/20 nm). To select for palmelloid cells, a second gate that included events with a minimum of 2-fold increase in FSC mean intensity was drawn, similarly to (Cheloni and Slaveykova, 2021). In that case, cells were acquired on a Beckman Cytoflex S equipped with violet (405 nm), blue (488 nm), yellow-green (561 nm) and red (638 nm) lasers. Chlorophyll autofluorescence was detected in the PerCP channel (690/50 nm), mVenus on the FITC (525/40BP). Statistics were obtained using BD FlowJo version 10 software (BD Biosciences, La Jolla, CA, USA, 2020).

mVenus [2] = experiment: mVenus expression by flow cytometry after 24 h treatment with silencing inhibitors (96 well liquid culture)
Description: For the sirtinol, SAHA, OSS-128167, nicotinamide and sodium butyrate series of treatments (comparison between various HDAC inhibitors), inoculums of 10^5 cells in late exponential phase of growth were transferred in 200 μL of TAP medium in 96 well plates and were treated with 50 μM, 2.5 μM, 100 μM, 1 mM and 5 mM of each histone deacetylase inhibitor respectively for 24 hours; a mix of all inhibitors was also tested. DMSO was used as a negative control.
as §2

mVenus [3] = experiment: mVenus expression followed over 12 days after SAHA treatment in flask cultures (microplate reader and flow cytometer)
Description: (§3) For the SAHA main treatments, inoculum of 10^5 cells in late exponential phase of growth were transferred in 50 mL of TAP medium in 125 mL shake flasks and were treated with 5 μM for 12 days (to evaluate mVenus expression overtime), or with 2.5, 5 and 10 μM for 6 days (to evaluate SAHA toxicity over cell viability). DMSO was used as a negative control.
as §1, §2

C. reinhardtii [4] = experiment: Cell viability (membrane integrity) by propidium iodide staining, flow cytometry; details: SAHA 2.5, 5 and 10 μM, day 6
Description: as §3
as §2, with “To select for palmelloid cells, a second gate that included events with a minimum of 2-fold increase in FSC mean intensity was drawn, similarly to (Cheloni and Slaveykova, 2021). In that case, cells were acquired on a Beckman Cytoflex S equipped with violet (405 nm), blue (488 nm), yellow-green (561 nm) and red (638 nm) lasers.” left out, “Statistics were obtained using BD FlowJo version 10 software (BD Biosciences, La Jolla, CA, USA, 2020).” left out

C. reinhardtii [5] = experiment: Palmelloid colony formation and motility (microscopy, flow cytometry)
Description: as §3, §2

C. reinhardtii [6] = experiment: Growth curve / growth kinetic (OD 750 nm)
Description: […] DMSO was used as a negative control.
as §1

mVenus mRNA = mVenus mRNA relative expression by RT-qPCR (normalized on histone H3); details: day 6
Description: 4 mL of a 6 days C. reinhardtii grown culture were harvested and centrifuged in Eppendorf tube for 5 min at 4000 g. Cells were lysed by immersion in liquid nitrogen for 1 min. Total RNA was extracted using Invitrogen™ TRIzol™ reagent (Life technologies, Thermo Fisher Scientifics) according to the manufacturer's protocol with minor modifications, including the addition of NaCl at a final concentration of 100 mM in the isopropanol at the nucleic acids precipitation step. Samples were further treated with Turbo DNase (Invitrogen™ TURBO DNA-free™ Kit, Thermo Fisher Scientifics) according to the manufacturer's instructions. RNA yield and quality were determined with 260 nm/280 nm absorbance ratio obtained on a Nanodrop instrument (Thermo Fisher Scientific). Samples of <100 ng total RNA were subjected to reverse transcription and qPCR amplification in a single reaction using the Luna® Universal One-Step RT-qPCR Kit Protocol (New England Biolabs Canada). Briefly, 1 μl of RNA were subjected to reverse transcription performed at 55° C. for 10 minutes. Initial denaturation was 1 min at 95° C. followed by 45 cycles of denaturation for 10 seconds, extension for 30 seconds at 60° C. […] SYBR Green fluorescence was recorded in the FAM channel of a CFX connect real time system (BioRad). […] Relative mRNA expression levels were determined according to the 2^(−ddCt) method.

mVenus [7] = experiment: mVenus expression after one year of storage, 72 h treatment with histone deacetylase inhibitors (flow cytometry); details: SAHA 5 μM, cells stored for one year after transformation
From the text: as §2, with “Statistics were obtained using BD FlowJo version 10 software (BD Biosciences, La Jolla, CA, USA, 2020).” left out

C. reinhardtii [8] = experiment: Chlorophyll content observed by culture colour at higher SAHA concentrations
[9] = SAHA 2.5 μM, transformed clones
[10] = SAHA 5 μM, compared to untreated or DMSO treated cells

O=C(/C=C/c1cccc(S(=O)(=O)Nc2ccccc2)c1)NO [Belinostat, (2E)-N-Hydroxy-3-[3-(phenylsulfamoyl)phenyl]prop-2-enamide]
expression of the transgene (mVenus [1]): substantially increase

O=C(CCCCCCC(=O)Nc1ccccc1)NO [SAHA, N-hydroxy-N′-phenyloctanediamide]
frequency of cells expressing mVenus (mVenus [2]; [9]): increased | level of expression of mVenus per cell (mVenus [2]; [9]): increased | % of mVenus cells (mVenus [2]; clone 16, SAHA 2.5 μM): 68.1% | increase in protein expression (mean fluorescence intensity) (mVenus [2]; clone 16, SAHA 2.5 μM): 4.6 fold | increase of % of mVenus cells (mVenus [2]; clone 16, SAHA 2.5 μM, versus 13.3% without SAHA): 5.1 fold | frequency of mVenus-positive cells (mVenus [1]; clone 16, 5 μM): 73.1% | increase of amount of mVenus inside each cell (mean fluorescence intensity) (mVenus [1]; clone 16, 5 μM): 3-4 fold | increase of frequency of mVenus-positive cells (mVenus [1]; clone 16, 5 μM): 8.6 fold | frequency of mVenus-positive cells (mVenus [1]; clone 17, 5 μM): 59.9% | increase of amount of mVenus inside each cell (mean fluorescence intensity) (mVenus [1]; clone 17, 5 μM): 2-5 fold | increase of frequency of mVenus-positive cells (mVenus [1]; clone 17, 5 μM): 27 fold | expression of the transgene (mVenus [1]): substantially increase | mVenus fluorescence (mVenus [3]; SAHA 5 μM at day 0, around day 4-5, all clones): steadily increased | transgene expression over culture period (mVenus [3]; SAHA 5 μM, 12 days, flask cultures): steadily increases | decline in mVenus production in stationary phase (mVenus [3]; SAHA 5 μM, around day 7-8): did not prevent the progressive decline in production | mVenus fluorescence per cell at day 12 (mVenus [3]; [10]): more mVenus fluorescence per cells | population of mVenus expressing cells at day 12 (mVenus [3]; [10]): more frequent population of mVenus expressing cells | % of producing cells (mVenus+) at maximum production (mVenus [3]; SAHA 5 μM, day 5-7, all the clones): more than 74% | time of maximum production of mVenus (mVenus [3]; SAHA 5 μM, end of the exponential phase): 5 to 7 days | % mVenus+ cells at day 12 (mVenus [3]; SAHA 5 μM, most clones (except 16)): < 10% | % of PI+ cells (C. reinhardtii [4]): slightly increased | % of transformant cells remaining intact (C. reinhardtii [4]): ~ 90% | palmelloid colonies quantified by flow cytometry (C. reinhardtii [5]; SAHA 5 μM, day 3 and 6 post-treatment, in most cases): increased | palmelloid colonies (microscopy) (C. reinhardtii [5]; SAHA 5 and 10 μM, 6 days): accumulation of small palmelloid colonies | palmelloid colonies (microscopy) (C. reinhardtii [5]; SAHA 20, 40 and 80 μM, increasing concentrations): Larger palmelloid colonies | motility (C. reinhardtii [5]; SAHA above 2.5 μM): progressively lost | phenotype induced in C. reinhardtii (C. reinhardtii [5]; SAHA, FIG. 6): induces a palmelloid phenotype | growth kinetic (C. reinhardtii [6]; 80 μM SAHA): totally inhibited | growth kinetic (C. reinhardtii [6]; 20 and 40 μM SAHA): inhibited partially | overall growth of microalgae (C. reinhardtii [6]; SAHA 5 μM, 12 days): did not impact the overall growth | increase of relative mVenus mRNA expression over histone H3 mRNA (mVenus mRNA; clone 16, SAHA 5 μM): 7 fold | increase of relative mVenus mRNA expression over histone H3 mRNA (mVenus mRNA; clone 17, SAHA 5 μM): 6.6 fold | frequency of cells expressing mVenus (mVenus [7]): increased | chlorophyll content, culture colour (C. reinhardtii [8]; 80 μM SAHA): red tint | chlorophyll content, culture colour (C. reinhardtii [8]; 20 and 40 μM SAHA): more yellow tint

O=C(/C=C/c1ccc(CN(CCO)CCc2c[nH]c3ccccc23)cc1)NO [Dacinostat, (E)-N-hydroxy-3-[4-[[2-hydroxyethyl-[2-(1H-indol-3-yl)ethyl]amino]methyl]phenyl]prop-2-enamide]
expression of the transgene (mVenus [1]): substantially increase

Cc1[nH]c2ccccc2c1CCNCc1ccc(/C=C/C(=O)NO)cc1 [Panobinostat, (2E)-N-hydroxy-3-[4-({[2-(2-methyl-1H-indol-3-yl)ethyl]amino}methyl)phenyl]acrylamide]
expression of the transgene (mVenus [1]): substantially increase
